Measured values reported in US20260242419A1, “A CYCLIC PEPTIDE FOR TRAPPING INTERLEUKIN-1 BETA” (Merck Sharp & Dohme LLC, priority 2023, published 2026).
Starred links: 1 amine or outer side, 2 acyl side, 3 side chain; linkers in the order of their positions; H or OH if unused. Non-standard residues stand in square brackets, D forms with d. Residues, ends and D or L forms follow the SMILES beside them. Ala(2-carboxypyrimidin-5-yl) = N[C@@H](Cc1cnc(C(=O)O)nc1)C(=O)O; dPro(4R-(4-pyridylmethyl)) = O=C(O)[C@H]1C[C@@H](Cc2ccncc2)CN1; Trp(βS-Me,4-F) = C[C@@H](c1c[nH]c2cccc(F)c12)[C@H](N)C(=O)O; Bip(4'-COOH) = N[C@@H](Cc1ccc(-c2ccc(C(=O)O)cc2)cc1)C(=O)O; dPro(4R-Bzl(4-F)) = O=C(O)[C@H]1C[C@@H](Cc2ccc(F)cc2)CN1; dPro(3S-(4-F-Bn)) = O=C(O)[C@@H]1NCC[C@@H]1Cc1ccc(F)cc1; X4 = O=C([C@H]1[C@@H](Cc2ccncc2)CCN1[*:1])[*:2]; Ala(piperazin-1-yl) = N[C@@H](CN1CCNCC1)C(=O)O; Phe(4-COOH) = N[C@@H](Cc1ccc(C(=O)O)cc1)C(=O)O; Lys(Me3) = C[N+](C)(C)CCCC[C@H](N)C(=O)O; Pro(cis-4-F) = O=C(O)[C@@H]1C[C@H](F)CN1; d(αMeF) = C[C@@](N)(Cc1ccccc1)C(=O)O; d(αMeD) = C[C@@](N)(CC(=O)O)C(=O)O; 4Pal = N[C@@H](Cc1ccncc1)C(=O)O; Dab = NCC[C@H](N)C(=O)O; Aib = CC(C)(N)C(=O)O

Target: T1, IL-1β (Homo sapiens, UniProt P01584)
T1 construct: purchased BioLegend 579404
Experiment: IL-6 assay in MRC5 cells: inhibition of IL-1β induced IL-6 secretion (AlphaLISA)
Type: cell-based
Settings: inhibition of IL-1β induced IL-6 secretion in MRC5 cells; compound pre-incubated 1 hour with recombinant human IL-1β; read-out: MRC5 IC50
Protocol: Procedure for IL-6 Assay in MRC5 Cells
The inhibition of IL-1β induced IL-6 secretion was evaluated in MRC5 cells. Recombinant human IL-1β (BioLegend 579404) at 2λ EC80 concentration was prepared in seeding medium. EMEM (ATCC 30-2003) with 0.025% BSA (Sigma A9576), 1×penicillin/streptomycin (Gibco 15070-063), 1×NEAA (Gibco 11140-050), 1×GlutaMax (Gibco 35050-061), and 1×sodium pyruvate (Gibco 11360-070), 20 μL of IL-1β was added to a 384-well collagen-coated plate (Corning 354664) and pre-incubated at ambient temperature for 1 hour with 200 nL of compound dispensed using an ECHO 555 liquid handler. Human lung fibroblast MRC5 cells (ATCC CCL-171) were added at a density of 3000 cells/20 μL per well. The cells were prepared by passaging three times in growth medium, EMEM (ATCC 30-2003) with 10% fetal bovine serum (Gibco 16140-071), 1×penicillin/streptomycin (Gibco 15070-063), 1×NEAA (Gibco 11140-050), 1×GlutaMax (Gibco 35050-061), and 1×sodium pyruvate (Gibco 11360-070) in collagen-coated T175 flasks (Greiner 661950) and harvested in seeding medium after 5 minutes of 0.25% trypsin-EDTA (Gibco 25200-056) digestion. The 384-well collagen-coated plate, containing a final volume of 40 μL, was incubated at 37° C., 5% CO2 overnight. 5 μL of the conditioned medium was transferred to a 384-well AlphaLISA plate (PerkinElmer 6005350) for detection of IL-6 using the human AlphaLISA IL-6 kit (PerkinElmer AL223F) as per the manufacturer's protocol. 20 μL of the acceptor bead/biotinylated antibody mix was added to the 384-well AlphaLISA plate and incubated for 1 hour at ambient temperature. The donor bead mix was protected from light and 25 μL was added to the plate and incubated for 30 minutes at ambient temperature. The AlphaLISA plate was read on an EnVision multimode plate reader (Perkin Elmer model 2104) using the AlphaScreen setting (laser exc at 680 nm and emis at […]). Dose response curves and IC50 values were analyzed using a 4-parameter logistic equation in Spotfire software (Tibco, Palo Alto, CA).

T1 sequence (P01584 117-269): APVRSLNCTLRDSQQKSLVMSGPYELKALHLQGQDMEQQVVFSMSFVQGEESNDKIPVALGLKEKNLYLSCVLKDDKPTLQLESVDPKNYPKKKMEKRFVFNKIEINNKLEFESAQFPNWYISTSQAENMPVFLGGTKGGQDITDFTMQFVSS

IC50 | SMILES
0.015 nM | C[C@@H](c1c[nH]c2cccc(F)c12)[C@@H]1NC(=O)[C@@H]2C[C@H](F)CN2C(=O)CNC(=O)[C@H](Cc2ccc(C(=O)O)cc2)NC(=O)[C@H](Cc2ccncc2)NC(=O)[C@H](Cc2ccc(-c3ccc(C(=O)O)cc3)cc2)NC(=O)[C@H]2C[C@@H](Cc3ccc(F)cc3)CN2C(=O)CNC(=O)[C@H](CCN)NC(=O)[C@H](CCC(N)=O)NC(=O)[C@H](CCCC[N+](C)(C)C)NC(=O)C(C)(C)NC(=O)[C@H](Cc2c[nH]c3ccccc23)NC(=O)[C@H](CO)NC(=O)C(C)(C)NC1=O [Example 298] (cyclo([Bip(4'-COOH)][4Pal][Phe(4-COOH)]G[Pro(cis-4-F)][Trp(βS-Me,4-F)][Aib]SW[Aib][Lys(Me3)]Q[Dab]G[dPro(4R-Bzl(4-F))]))
0.024 nM | CC(C)C[C@H]1NC(=O)[C@@](C)(CC(=O)O)NC(=O)[C@H](Cc2c[nH]c3ccccc23)NC(=O)[C@H](CO)NC(=O)C(C)(C)NC(=O)[C@H]([C@@H](C)c2c[nH]c3cccc(F)c23)NC(=O)[C@@H]2C[C@H](F)CN2C(=O)CNC(=O)[C@H](Cc2ccc(C(=O)O)cc2)NC(=O)[C@H](Cc2ccncc2)NC(=O)[C@H](Cc2ccc(-c3ccc(C(=O)O)cc3)cc2)NC(=O)[C@H]2[C@@H](Cc3ccncc3)CCN2C(=O)CNC(=O)[C@H](CCN)NC(=O)[C@H](CCC(N)=O)NC1=O [Example 238] (cyclo([Bip(4'-COOH)][4Pal][Phe(4-COOH)]G[Pro(cis-4-F)][Trp(βS-Me,4-F)][Aib]SW[d(αMeD)][dL]Q[Dab]G[X4]))
0.014 nM | C[C@@H](c1c[nH]c2cccc(F)c12)[C@@H]1NC(=O)[C@@H]2C[C@H](F)CN2C(=O)CNC(=O)[C@H](Cc2ccc(C(=O)O)cc2)NC(=O)[C@H](Cc2ccncc2)NC(=O)[C@H](Cc2ccc(-c3ccc(C(=O)O)cc3)cc2)NC(=O)[C@H]2C[C@@H](Cc3ccncc3)CN2C(=O)CNC(=O)[C@H](CCN)NC(=O)[C@H](CCC(N)=O)NC(=O)[C@H](Cc2cnc(C(=O)O)nc2)NC(=O)C(C)(C)NC(=O)[C@H](Cc2c[nH]c3ccccc23)NC(=O)[C@H](CO)NC(=O)C(C)(C)NC1=O [Example 268] (cyclo([Bip(4'-COOH)][4Pal][Phe(4-COOH)]G[Pro(cis-4-F)][Trp(βS-Me,4-F)][Aib]SW[Aib][Ala(2-carboxypyrimidin-5-yl)]Q[Dab]G[dPro(4R-(4-pyridylmethyl))]))
0.014 nM | C[C@@H](c1c[nH]c2cccc(F)c12)[C@@H]1NC(=O)[C@@H]2C[C@H](F)CN2C(=O)CNC(=O)[C@H](Cc2ccc(C(=O)O)cc2)NC(=O)[C@H](Cc2ccncc2)NC(=O)[C@H](Cc2ccc(-c3ccc(C(=O)O)cc3)cc2)NC(=O)[C@H]2C[C@@H](Cc3ccncc3)CN2C(=O)CNC(=O)[C@H](CCN)NC(=O)[C@H](CCC(N)=O)NC(=O)[C@H](CC(=O)O)NC(=O)[C@@](C)(Cc2ccccc2)NC(=O)[C@H](Cc2c[nH]c3ccccc23)NC(=O)[C@H](CO)NC(=O)C(C)(C)NC1=O [Example 259] (cyclo([Bip(4'-COOH)][4Pal][Phe(4-COOH)]G[Pro(cis-4-F)][Trp(βS-Me,4-F)][Aib]SW[d(αMeF)]DQ[Dab]G[dPro(4R-(4-pyridylmethyl))]))
0.011 nM | C[C@@H](c1c[nH]c2cccc(F)c12)[C@@H]1NC(=O)[C@@H]2C[C@H](F)CN2C(=O)CNC(=O)[C@H](Cc2ccc(C(=O)O)cc2)NC(=O)[C@H](Cc2ccncc2)NC(=O)[C@H](Cc2ccc(-c3ccc(C(=O)O)cc3)cc2)NC(=O)[C@H]2[C@@H](Cc3ccc(F)cc3)CCN2C(=O)CNC(=O)[C@H](CCN)NC(=O)[C@H](CCC(N)=O)NC(=O)[C@H](CN2CCNCC2)NC(=O)[C@@](C)(CC(=O)O)NC(=O)[C@H](Cc2c[nH]c3ccccc23)NC(=O)[C@H](CO)NC(=O)C(C)(C)NC1=O [Example 287] (cyclo([Bip(4'-COOH)][4Pal][Phe(4-COOH)]G[Pro(cis-4-F)][Trp(βS-Me,4-F)][Aib]SW[d(αMeD)][Ala(piperazin-1-yl)]Q[Dab]G[dPro(3S-(4-F-Bn))]))
